This passage reports Ki results from ChEMBL document CHEMBL3098019, “Structure-based screening for the discovery of new carbonic anhydrase VII inhibitors” (Eur J Med Chem, 2014).

One experiment concerns the target Carbonic anhydrase 1 (Homo sapiens, UniProt P00915). Briefly: Inhibition of human recombinant carbonic anhydrase 1 preincubated for 15 mins by stopped flow CO2 hydration assay.
For another experiment, the target named is Carbonic anhydrase 9 (Homo sapiens, UniProt Q16790).
Another experiment addresses Carbonic anhydrase 2 (Homo sapiens, UniProt P00918). The experiment can be described thus: Inhibition of human recombinant carbonic anhydrase 2 preincubated for 15 mins by stopped flow CO2 hydration assay.
In a further experiment the target is Carbonic anhydrase 14 (Homo sapiens, UniProt Q9ULX7). The experiment can be described thus: Inhibition of human recombinant carbonic anhydrase 14 preincubated for 15 mins by stopped flow CO2 hydration assay.
Chain of Carbonic anhydrase 14 (Q9ULX7 whole entry): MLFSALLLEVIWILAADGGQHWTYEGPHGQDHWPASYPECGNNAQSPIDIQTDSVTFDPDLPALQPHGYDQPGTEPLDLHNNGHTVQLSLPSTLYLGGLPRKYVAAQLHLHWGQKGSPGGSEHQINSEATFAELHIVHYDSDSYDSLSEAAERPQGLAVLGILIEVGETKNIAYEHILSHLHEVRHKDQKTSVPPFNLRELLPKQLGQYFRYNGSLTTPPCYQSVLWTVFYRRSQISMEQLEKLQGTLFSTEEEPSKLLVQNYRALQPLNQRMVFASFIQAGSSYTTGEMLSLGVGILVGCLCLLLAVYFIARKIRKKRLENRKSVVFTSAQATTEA

Chain of Carbonic anhydrase 1 (P00915 whole entry): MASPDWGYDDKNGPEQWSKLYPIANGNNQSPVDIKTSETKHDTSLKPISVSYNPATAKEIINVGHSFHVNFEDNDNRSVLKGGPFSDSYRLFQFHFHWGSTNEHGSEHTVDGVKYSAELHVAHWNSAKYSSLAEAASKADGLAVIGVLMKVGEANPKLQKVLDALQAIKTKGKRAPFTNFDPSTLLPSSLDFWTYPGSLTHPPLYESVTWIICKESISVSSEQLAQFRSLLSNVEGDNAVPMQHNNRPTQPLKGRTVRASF
Description for Carbonic anhydrase 9: Inhibition of human catalytic domain of carbonic anhydrase 9 preincubated for 15 mins by stopped flow CO2 hydration assay

As for `NS(=O)(=O)Cc1ccc(NC(=O)C2CC=CCC2)cc1` (configuration not stated), the Ki on Carbonic anhydrase 1 was found to be 8.9 nM; on Carbonic anhydrase 9, 53.2 nM; at Carbonic anhydrase 2, 73.2 nM; at Carbonic anhydrase 14, 7.6 nM.

Consider `NS(=O)(=O)Cc1ccc(NS(=O)(=O)c2ccc(Br)cc2Cl)cc1`, for which the inhibition constant Ki on Carbonic anhydrase 1 came to 8.6 nM; on Carbonic anhydrase 2 it was 6.3 nM; on Carbonic anhydrase 14 it was 19.4 nM.
